In general, EC50 refers to the concentration giving half of the maximal effect. A higher EC50 goes with weaker potency.

The text below walks through data of patent publication US9120770B2, “Substituted pyridine and pyrazine compounds as PDE4 inhibitors” (DART NEUROSCIENCE (CAYMAN) LTD., priority 2013, dated 2015).

The target of this assay is PDE4D3 (Homo sapiens, UniProt Q08499).
Chain of PDE4D3 (Q08499 1-673 isoform Q08499-2): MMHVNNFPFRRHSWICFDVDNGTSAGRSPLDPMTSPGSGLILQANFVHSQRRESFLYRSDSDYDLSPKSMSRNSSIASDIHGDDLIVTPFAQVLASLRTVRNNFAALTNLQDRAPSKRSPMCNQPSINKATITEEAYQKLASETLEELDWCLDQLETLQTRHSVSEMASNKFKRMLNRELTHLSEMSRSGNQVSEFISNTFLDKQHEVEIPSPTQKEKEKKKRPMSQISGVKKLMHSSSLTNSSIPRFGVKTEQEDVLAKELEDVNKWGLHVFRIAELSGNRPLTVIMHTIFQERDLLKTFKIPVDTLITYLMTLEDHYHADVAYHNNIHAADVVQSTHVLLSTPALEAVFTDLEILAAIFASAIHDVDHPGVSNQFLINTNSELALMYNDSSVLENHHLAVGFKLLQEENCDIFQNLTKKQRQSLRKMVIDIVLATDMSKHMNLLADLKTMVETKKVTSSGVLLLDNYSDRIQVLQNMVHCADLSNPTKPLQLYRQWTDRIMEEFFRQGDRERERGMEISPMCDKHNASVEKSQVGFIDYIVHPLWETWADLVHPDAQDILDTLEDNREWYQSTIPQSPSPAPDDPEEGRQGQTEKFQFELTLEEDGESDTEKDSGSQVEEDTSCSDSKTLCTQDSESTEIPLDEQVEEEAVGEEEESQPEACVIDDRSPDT
With `CCOc1ncc(Cn2ncnc2C(=O)OC)nc1-c1cccc(OC(F)F)c1` [Example 192, Methyl 1-((6-(3-(difluoromethoxy)phenyl)-5-ethoxypyrazin-2-yl)methyl)-1H-1,2,4-triazole-5-carboxylate], the EC50 was in the range of 1000 to 10000 nM. Consider `CCOc1ncc(Cn2cnc([N+](=O)[O-])n2)nc1-c1cccc(OC(F)F)c1` [Example 193, 3-(3-(Difluoromethoxy)phenyl)-2-ethoxy-5-((3-nitro-1H-1,2,4-triazol-1-yl)methyl)pyrazine], for which the EC50 fell in the range of 1000 to 10000 nM.

In the case of `CCOc1ncc(Cn2ncnc2[N+](=O)[O-])nc1-c1cccc(OC(F)F)c1` [Example 194, 3-(3-(Difluoromethoxy)phenyl)-2-ethoxy-5-((5-nitro-1H-1,2,4-triazol-1-yl)methyl)pyrazine], the EC50 lay in the range of 1000 to 10000 nM. Regarding `COC(=O)c1ncnn1Cc1cnc(OC)c(-c2cccc(Cl)c2)n1` [Example 195, Methyl 1-{[6-(3-chlorophenyl)-5-methoxypyrazin-2-yl]methyl}-1H-1,2,4-triazole-5-carboxylate], the EC50 was in the range of 1000 to 10000 nM. Regarding `COC(=O)c1ncn(Cc2cnc(OC)c(-c3cccc(OC(F)F)c3)n2)n1` [Example 196, Methyl 1-({6-[3-(difluoromethoxy)phenyl]-5-methoxypyrazin-2-yl}methyl)-1H-1,2,4-triazole-3-carboxylate], the EC50 fell in the range of 1000 to 10000 nM. For `CCOc1ncc(Cn2cnc(C(=O)OC)n2)nc1-c1cccc(Cl)c1` [Example 197, Methyl 1-{[6-(3-chlorophenyl)-5-ethoxypyrazin-2-yl]methyl}-1H-1,2,4-triazole-3-carboxylate] the value was 1000 to 10000 nM. In the case of `NC(=O)c1cn(Cc2cnc(OC(F)F)c(-c3cccc(Cl)c3)c2)cn1` [Example 198, 1-{[5-(3-Chlorophenyl)-6-(difluoromethoxy)pyridin-3-yl]methyl}-1H-imidazole-4-carboxamide], the EC50 was in the range of 1000 to 10000 nM. For the compound `COc1ncc(Cn2cnc(CO)n2)nc1-c1cccc(Cl)c1` [Example 199, (1-{[6-(3-Chlorophenyl)-5-methoxypyrazin-2-yl]methyl}-1H-1,2,4-triazol-3-yl)methanol], the EC50 lay in the range of 1000 to 10000 nM. As to `OCc1ncn(Cc2cnc(OC(F)F)c(-c3cccc(Cl)c3)c2)n1` [Example 200, (1-{[5-(3-Chlorophenyl)-6-(difluoromethoxy)pyridin-3-yl]methyl}-1H-1,2,4-triazol-3-yl)methanol], the EC50 was in the range of 100 to 1000 nM.

On to `CCOc1ncc(Cn2cnc(CO)n2)cc1-c1cccc(OC(F)F)c1` [Example 201, [1-({5-[3-(Difluoromethoxy)phenyl]-6-ethoxypyridin-3-yl}methyl)-1H-1,2,4-triazol-3-yl]methanol], for which the EC50 is under 100 nM. The value for `COc1ncc(Cn2cnc(CO)n2)cc1-c1cccc(OC(F)F)c1` [Example 202, [1-({5-[3-(Difluoromethoxy)phenyl]-6-methoxypyridin-3-yl}methyl)-1H-1,2,4-triazol-3-yl]methanol] was under 100 nM; that for `CCOc1ncc(Cn2cnc(CO)n2)cc1-c1cccc(Cl)c1` [Example 203, (1-((5-(3-Chlorophenyl)-6-ethoxypyridin-3-yl)methyl)-1H-1,2,4-triazol-3-yl)methanol] was under 100 nM; that for `CCOc1cccc(-c2cc(Cn3cnc(CO)n3)cnc2OC(F)F)c1` [Example 204, (1-{[6-(Difluoromethoxy)-5-(3-ethoxyphenyl)pyridin-3-yl]methyl}-1H-1,2,4-triazol-3-yl)methanol] was under 100 nM. `COc1ncc(Cn2cnc(CO)n2)cc1-c1ccnc(OC(F)F)c1` [Example 205, [1-({5-[2-(Difluoromethoxy)pyridin-4-yl]-6-methoxypyridin-3-yl}methyl)-1H-1,2,4-triazol-3-yl]methanol] had an EC50 of under 100 nM. For `CCOc1ncc(Cn2cnc(CO)n2)cc1-c1ccnc(OC(F)F)c1` [Example 206, [1-({5-[2-(Difluoromethoxy)pyridin-4-yl]-6-ethoxypyridin-3-yl}methyl)-1H-1,2,4-triazol-3-yl]methanol], the EC50 is under 100 nM.
